From PubChem BioAssay (NCI)
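Tested at 5 concentrations; 48 h exposure; 96-well plates; endpoints linearly interpolated, else capped at highest concentration. TGI is the concentration that stops growth completely.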 Where a SMILES comes first, the peptide text is derived from it. [ ]: non-standard residue; d: D form. pGlu = O=C1CC[CH](C(=O)O)N1

Columns and labels:
Assay in all cases: DTP human tumour cell line panel, 48 h
[1] = tested on: SK-MEL-2 melanoma
[2] = tested on: NCI-H23 lung
[3] = tested on: IGROV1 ovarian
[4] = tested on: RXF 393 renal
[5] = tested on: MALME-3M melanoma
[6] = tested on: MOLT-4 leukemia
[7] = tested on: A549 NSCLC
[8] = tested on: SK-MEL-28 melanoma
[9] = tested on: NCI/ADR-RES ovarian
[10] = tested on: OVCAR-5 ovarian
[11] = tested on: MDA-MB-435

Structure (SMILES) | TGI [1] [µM] | TGI [2] [µM] | TGI [3] [µM] | TGI [4] [µM] | TGI [5] [µM] | TGI [6] [µM] | TGI [7] [µM] | TGI [8] [µM] | TGI [9] [µM] | TGI [10] [µM] | TGI [11] [µM]
Cc1ncn(-c2ccccc2O)c1C | > 100 | > 100 | > 100 | > 100 | > 100 | > 100 | > 100 | > 100 | > 100 | > 100 | > 100
OC1NC2Nc3ccccc3NC2NC1O (centres undefined) | > 100 | > 100 | > 100 | > 100 | > 100 | > 100 | > 100 | > 100 | > 100 | > 100 | > 100
O=c1onc2n1-c1ccc(Cl)cc1C(=S)N1CSCC21 (centres undefined) | 69.6 | – | > 100 | 89.2 | > 100 | > 100 | > 100 | > 100 | 36.4 | > 100 | 23.8
COc1ccc2c(c1)c1c3c(ccc4ncn2c43)N(CCO)CCN=1 | 0.359 | 0.466 | 5.53 | 0.473 | 0.43 | 0.656 | 2.22 | 0.941 | 1.76 | 0.715 | 0.834
CN(O)C(=O)CCC(NC(=O)CCC(N)C(=O)O)C(=O)NCC(=O)O (centres undefined) | > 100 | > 100 | > 100 | > 100 | – | > 100 | > 100 | > 100 | > 100 | > 100 | > 100
NC1=Nc2ccccc2Sc2nncn21 | > 100 | > 100 | > 100 | > 100 | > 100 | > 100 | > 100 | > 100 | > 100 | > 100 | > 100
COC(=O)C1=C(C)NC(=O)N2[C@@H](CCOCc3ccccc3)CC[C@@H]12 | > 50 | > 50 | > 50 | > 50 | > 50 | > 50 | > 50 | > 50 | > 50 | > 50 | > 50
CCOP(=O)(CC(=O)C1CC1)OCC | > 100 | > 100 | > 100 | – | > 100 | > 100 | > 100 | > 100 | > 100 | > 100 | –
Cc1cn(C2CC(n3cc(Cn4ccc(=O)[nH]c4=O)nn3)C(CO)O2)c(=O)[nH]c1=O (centres undefined) | > 100 | > 100 | – | > 100 | – | > 100 | > 100 | > 100 | > 100 | > 100 | > 100
Cc1c(NC(=S)Nc2ccc([N+](=O)[O-])cc2)c(=O)n(-c2ccccc2)n1C | – | > 100 | > 100 | > 100 | > 100 | > 100 | > 100 | > 100 | > 100 | > 100 | > 100
COc1ccc(C2SCC(=O)N2c2ccc(-n3c(-c4ccccc4)nc4ccccc4c3=O)cc2)cc1 (centres undefined) | > 100 | > 100 | > 100 | – | – | > 100 | > 100 | > 100 | > 100 | > 100 | > 100
COC(=O)C1CCC(=O)N1C(c1ccc(OC)cc1)c1cc(OC)c(OC)c(OC)c1 (centres undefined) | > 100 | > 100 | – | 0.361 | – | > 61.1 | > 100 | > 100 | 1.01 | > 100 | 0.243
C=C1C2CCC3C4(C)CCCC(C)(C(=O)O)C4CCC3(C2)C1OC(=O)/C(C)=C/C (centres undefined) | > 100 | > 100 | > 100 | 34.2 | > 100 | – | > 100 | > 100 | 53.6 | 79.5 | > 100
Cc1cc(N(CCC#N)CCC#N)ccc1/C(N=Nc1ccc([N+](=O)[O-])cc1)=N\NC(=O)c1cc(Cl)ccc1O | > 100 | 39.1 | > 100 | > 100 | > 100 | 72.3 | > 100 | – | > 100 | > 100 | > 100
CC1C(C)(C)C23CC12C1(OCCO1)C3Br (centres undefined) | – | > 100 | > 100 | > 100 | > 100 | > 100 | > 100 | > 100 | > 100 | > 100 | > 100
c1ccc2c3c(ccc2c1)-c1[nH]ncc1CCO3 | 85.3 | 75.7 | > 86.9 | > 74.2 | > 100 | 77.5 | > 100 | > 100 | > 100 | > 86.2 | –
CC(C)(C)c1ccc2c(c1)OP1(Oc3c(Cl)cc(Cl)c4cccnc34)(O2)Oc2ccc(C(C)(C)C)cc2O1 | 22.8 | 21.8 | 25.7 | 30 | 24.9 | 18.7 | 34.6 | 28.4 | 24.6 | 27.5 | –
Cc1nc(OCc2ccccc2)c2ncn(CCO)c2n1 | > 100 | > 100 | > 100 | > 100 | – | > 100 | > 100 | > 100 | > 100 | > 100 | > 100
CCCCCCN(CCCCCC)CCC(=O)c1ccc2cc(Br)c3ccccc3c2c1 | 92.9 | > 100 | > 100 | 64.3 | > 100 | – | > 100 | > 100 | > 100 | > 100 | 74.3
CC(C)C1CSC2N1C(=O)C2(OCc1ccccc1)C1CC1 (centres undefined) | – | > 100 | > 100 | > 100 | > 100 | > 100 | > 100 | > 100 | > 100 | > 100 | > 100
CCOC(=O)CNC(=O)C(CCC(=O)N(C)O)NC(=O)CCC(N)C(=O)O (centres undefined) | > 100 | > 100 | > 100 | > 100 | – | > 100 | > 100 | > 100 | > 100 | > 100 | > 100

Structure (SMILES) | TGI [1] [µM] | TGI [2] [µM] | TGI [3] [µM] | TGI [4] [µM] | TGI [5] [µM] | TGI [6] [µM] | TGI [7] [µM] | TGI [8] [µM] | TGI [9] [µM] | TGI [10] [µM] | TGI [11] [µM]
COc1ccc(/C=N\N(C)Cc2cccc3ccsc23)cc1 | – | > 100 | > 100 | > 100 | > 100 | > 100 | > 100 | > 100 | > 100 | > 100 | > 100
COC(=O)C(Cc1c[nH]c2ccccc12)NC(=O)C(Cc1cnc[nH]1)NC(=O)C1CCC(=O)N1C(=O)OCc1ccccc1 (centres undefined) | > 100 | > 100 | > 100 | > 100 | > 100 | > 100 | > 100 | > 100 | – | > 100 | –
COc1ccc(C2CC(c3c(O)ccc4ccccc34)=NN2)cc1OC (centres undefined) | 30.9 | 13.8 | 20.1 | 24.6 | 16.3 | 5.44 | – | – | 9.77 | 18.2 | 11.6
CN1CCC2(CC1)SSC1(CCN(C)CC1)S2 | > 100 | > 100 | – | – | – | > 100 | > 100 | > 100 | > 100 | > 100 | > 100
O=S(=O)(O)c1ccc(N=Nc2ccccc2)cc1 | > 100 | > 100 | > 100 | > 100 | – | > 100 | > 100 | > 100 | > 100 | > 100 | > 100
CC(NC(=O)C1CCC(=O)N1)C(=O)N1CCCC1C(N)=O (stereo not drawn) ([pGlu]-Ala-Pro-NH2; configuration not given here) | – | > 100 | > 100 | > 100 | > 100 | > 100 | > 100 | > 100 | > 100 | > 100 | > 100
CN(C)Cc1cc(Cl)c(O)c(CN(C)C)c1 | > 100 | > 100 | > 100 | > 100 | > 100 | – | > 100 | > 100 | > 100 | > 100 | > 100
Nn1c(CCCCCCCCc2nnc(-c3c(O)ccc4ccccc34)n2N)nnc1-c1c(O)ccc2ccccc12 | > 100 | > 100 | > 100 | – | > 100 | > 100 | > 100 | > 100 | > 100 | > 100 | > 100
CCCn1cc2c(=O)[nH]c(SC)nc2n1 | > 100 | > 100 | > 100 | > 100 | > 100 | > 100 | > 100 | > 100 | – | > 100 | –
O=c1[nH]c(Nc2ccc(Br)c(C(F)(F)F)c2)nc2nc[nH]c12 | 44.4 | > 100 | > 100 | – | > 100 | 88.5 | > 100 | > 100 | > 100 | > 100 | > 100
O=C(Cc1ccc2ccccc2c1)NCc1ccc(C(=O)NCCc2ccccc2)cc1 | > 100 | > 100 | > 100 | > 100 | > 100 | – | > 100 | > 100 | > 100 | > 100 | > 100
COc1ccc(CCN2CCN(CCCc3ccccc3)CC2)cc1 | > 100 | > 100 | > 100 | – | > 100 | > 100 | > 100 | > 100 | > 100 | > 100 | > 100
COC(NC(=O)Nc1ccc(C)cc1)(C(F)(F)F)C(F)(F)F | – | 89.8 | > 100 | 71.7 | > 100 | 48.6 | > 100 | > 100 | 84.7 | > 100 | > 100
Fc1cc(C2=Nn3c(COc4ccccc4Cl)nnc3S/C2=C\c2ccc(Cl)cc2)c(Cl)cc1Cl | 32.3 | 6.33 | 33 | 28 | – | > 100 | – | 13.4 | 30.1 | > 100 | 6.3
CC(C)(C)C1=C(Br)C(F)(C(C)(C)C)OP1(=O)c1ccccc1 (centres undefined) | 36.5 | 37.9 | 29.7 | 24.5 | 32 | – | 36.3 | 34.1 | 30.8 | 36.6 | 29.9
Cc1ccc(S(=O)(=O)n2cc(C=O)c(-c3cn(S(=O)(=O)c4ccc(C)cc4)cc3-c3cn(S(=O)(=O)c4ccc(C)cc4)cc3C=O)c2)cc1 | > 100 | > 100 | > 100 | > 100 | > 100 | 93.3 | > 100 | – | > 100 | > 100 | > 100
O=P1(c2ccccc2)C(c2ccccc2)CCC1c1ccccc1 (centres undefined) | – | > 100 | > 100 | > 100 | – | > 100 | > 100 | > 100 | – | – | > 100
S=P1(Sc2ccccc2)Oc2ccc3ccccc3c2-c2c(ccc3ccccc23)O1 | > 100 | > 100 | > 100 | > 100 | > 100 | > 100 | > 100 | > 100 | > 100 | > 100 | –
C=C(/C=C/C=C(\C)CCC=C(C)C)[C@@H]1CC[C@]2([C@H](CCCO)/C(=C(/C)C=O)CC[C@]2(C)O)[C@@H]1O | 38.5 | 45.7 | 81.1 | 37.8 | 29.8 | 29.3 | 38.2 | 28.4 | – | > 100 | –
Cc1nc2c(c(N3CCN(C)CC3)n1)Cc1ccccc1-2 | > 100 | > 100 | – | > 100 | > 100 | – | > 100 | – | > 100 | > 100 | > 100
C=C1C(C(=O)OC)[C@H]1C(=O)OC (some centres undefined) | > 100 | > 100 | > 100 | > 100 | – | > 100 | > 100 | > 100 | > 100 | > 100 | > 100
